Experimental data from US8551984B2, “Aminopyrimidines as SYK inhibitors” (Merck Sharp & Dohme Corp., priority 2009, dated 2013).

Biological target: recombinant human SYK (GST-hSYK fusion protein) (Homo sapiens, UniProt P43405)
Experiment: biochemical
[1] = rhSYK Activity (IC50), recombinant human GST-SYK 5 pM, ATP 25 μM, biotinylated substrate peptide 250 nM, HTRF, 10-dose titration

Source text: Homogeneous Time-Resolved Fluorescence (HTRF) Assay for the Recombinant Human SYK Enzyme:

CCOC(=O)C1CCC(O)(c2ncc(-c3cc(C)cc(Nc4nccc(OCCCOC)n4)c3)s2)CC1C (centres unmarked) [Example 113A-47]
IC50 (rhSYK Activity, Table 113A): < 100 nM

Cc1cc(Nc2nccc(C(F)(F)F)n2)cc(-c2cnc(C3(c4nnco4)CC3)s2)c1 [Example 85, N-(3-methyl-5-{2-[1-(1,3,4-oxadiazol-2-yl)cyclopropyl]-1,3-thiazol-5-yl}phenyl)-4-(trifluoromethyl)pyrimidin-2-amine]
IC50 [1]: < 100 nM

Cc1cc(Nc2nccc(C(F)(F)F)n2)cc(-c2cnc(C3(O)CCCN(C(=O)C4CCC(=O)N4)CC3)s2)c1 (centres unmarked) [Example 54D-61]
IC50 (rhSYK Activity, Table 54D): < 100 nM

CNS(=O)(=O)CCNCc1ncc(-c2cc(C)cc(Nc3nccc(C(F)(F)F)n3)c2)s1 [Example 88A-31]
IC50 [1]: < 100 nM

Cc1cc(Nc2nccc(C(F)(F)F)n2)cc(-c2cnc(C3(O)CCC(CCC(=O)O)CC3)s2)c1 (centres unmarked) [Example 33A-18]
IC50 (rhSYK Activity, Table 33-A): < 100 nM

Cc1cc(Nc2nccc(C(O)CO)n2)cc(-c2cnc(C3(O)CCC3)s2)c1 (centres unmarked) [Example 105, 1-[2-({3-[2-(1-hydroxycyclobutyl)-1,3-thiazol-5-yl]-5-methylphenyl}amino)pyrimidin-4-yl]ethane-1,2-diol]
IC50 [1]: < 100 nM

Cc1cc(Nc2nccc(C)n2)cc(-c2cnc([C@@]3(O)CC[C@H](C(=O)O)C(C)(C)C3)s2)c1
IC50 (Syk IC50, HTRF, recombinant human GST-SYK): 1 nM

Cc1cc(Nc2nccc(-c3cnn(CC(C)(C)O)c3)n2)cc(-c2cnc(C3(O)CCC3)s2)c1 [Example 157, 1-{5-[3-({4-[1-(2-hydroxy-2-methylpropyl)-1H-pyrazol-4-yl]pyrimidin-2-yl}amino)-5-methylphenyl]-1,3-thiazol-2-yl}cyclobutanol]
IC50 [1]: < 100 nM

Cc1cc(Nc2ncc(Cl)c(C)n2)cc(-c2cnc(C(C)(C)S(N)(=O)=O)s2)c1 [74A-9]
IC50 (rhSYK Activity, Table 74A): < 100 nM

Cc1cc(Nc2nccc(C(F)(F)F)n2)cc(-c2cnc(-c3ccco3)s2)c1 [Example 114-7]
IC50 [1]: < 100 nM

Cc1cc(Nc2nccc(OC3CCC(C)(O)CC3)n2)cc(-c2cnc(C(C)(O)C(F)(F)F)s2)c1 (centres unmarked) [Example 94B-2]
IC50 [1]: < 100 nM

Cc1cc(Nc2nccc(C(F)(F)F)n2)cc(-c2cnc(C3(O)CCCN(C(=O)OC(C)(C)C)CC3)s2)c1 (single isomer, unassigned) [45-1]
IC50 (rhSYK Activity, Table 45): 100 to 1000 nM

OC(c1ncc(-c2cc(NCC(F)(F)F)cc(Nc3nccc(C(F)(F)F)n3)c2)s1)C(F)F (centres unmarked) [Example 27-1]
IC50 (rhSYK Activity, Table 27): < 100 nM

Cc1cc(Nc2nccc(C(F)(F)F)n2)cc(-c2cnc(C3(NS(N)(=O)=O)CCC3)s2)c1 [Example 63-3]
IC50 (rhSYK Activity, Table 63): < 100 nM

FC1(F)CC(c2ncc(-c3cccc(Nc4nccc(C(F)(F)F)n4)c3)s2)C1 [Example 21-9]
IC50 (rhSYK Activity, Table 21): 100 to 1000 nM

Cc1cc(Nc2nccc(C(F)(F)F)n2)cc(-c2cnc(C3(O)CCCN(C(=O)Cc4nnn[nH]4)CC3)s2)c1 (single isomer, unassigned) [Example 54D-59]
IC50 (rhSYK Activity, Table 54D): < 100 nM

Cc1cc(Nc2nccc(C(F)(F)F)n2)cc(-c2cnc([C@]3(O)CC[C@@H](NC(=O)c4c[nH]cn4)CC3)s2)c1 [Example 54E-5]
IC50 (rhSYK Activity, Table 54E): < 100 nM

Cc1cc(Nc2nccc(C)n2)cc(-c2cnc(C3(O)C(C)CC(C(=O)O)CC3C)s2)c1 (centres unmarked) [Example 113B-28]
IC50 (rhSYK Activity, Table 113B): < 100 nM

Cc1cc(Nc2nccc(C(F)(F)F)n2)cc(-c2cnc(C3(O)CCC(NC(=O)CCC(=O)N(C)C)CC3)s2)c1 (centres unmarked) [Example 54E-31]
IC50 (rhSYK Activity, Table 54E): < 100 nM

Cc1cc(Nc2nccc(C(F)(F)F)n2)cc(-c2cnc(C3(O)CCCN(C(=O)c4cnn[nH]4)CC3)s2)c1 (single isomer, unassigned) [Example 54D-36]
IC50 (rhSYK Activity, Table 54D): < 100 nM

CCCNC(=O)N1CCC(O)(c2ncc(-c3cc(C)cc(Nc4nccc(C(F)(F)F)n4)c3)s2)CC1 [Example 54A-14]
IC50 (RHSYK Activity, Table 54A): < 100 nM

Cc1cc(Nc2nccc(C(F)(F)F)n2)cc(-c2cnc(C(=O)NCc3cnn(C)c3)s2)c1 [Example 87A-13]
IC50 [1]: 100 to 1000 nM

Cc1cc(Nc2nccc(C(F)(F)F)n2)cc(-c2cnc(C3(O)CCN(C(=O)C4CC4)CC3)s2)c1 [Example 54A-11]
IC50 (RHSYK Activity, Table 54A): < 100 nM

Cc1cc(Nc2nccc(C3CC3)n2)cc(-c2cnc([C@@]3(O)CC[C@H](C(=O)O)[C@H](C)C3)s2)c1 [Example 113A-21]
IC50 (rhSYK Activity, Table 113A): < 100 nM

Cc1cc(Nc2nccc(OC3CCNCC3)n2)cc(-c2cnc(C3(O)CCC3)s2)c1 [Example 94A-33]
IC50 [1]: < 100 nM

Cc1cc(Nc2nccc(C(F)(F)F)n2)cc(-c2cnc(C3(O)CCN(C(=O)c4ncc[nH]4)CC3)s2)c1 [Example 54A-28]
IC50 (RHSYK Activity, Table 54A): < 100 nM

C#Cc1ccc(C(=O)N2CCCC(O)(c3ncc(-c4cc(C)cc(Nc5nccc(C(F)(F)F)n5)c4)s3)CC2)cc1 (centres unmarked) [Example 54D-99]
IC50 (rhSYK Activity, Table 54D): < 100 nM

Cc1cc(Nc2nccc(C(F)(F)F)n2)cc(-c2cnc(C3(O)CCCN(C(=O)c4cc(C)on4)CC3)s2)c1 (centres unmarked) [Example 54D-48]
IC50 (rhSYK Activity, Table 54D): < 100 nM

Cc1cc(Nc2nccc(C(F)(F)F)n2)cc(-c2cnc(CN3CC[S+]([O-])CC3)s2)c1 [Example 88B-3]
IC50 [1]: < 100 nM

Cc1cc(Nc2nccc(OCCCCOCc3ccccc3)n2)cc(-c2cnc(C3(O)CCC3)s2)c1 [Example 94A-11]
IC50 [1]: 100 to 1000 nM

Cc1cc(Nc2nccc(C(F)(F)F)n2)cc(-c2cnc(C(=O)N3CCN(C)CC3)s2)c1 [Example 87B-3]
IC50 [1]: 100 to 1000 nM

Cc1cc(Nc2nccc(C(F)(F)F)n2)cc(-c2cnc(-c3cnn(CC4CNC(=O)O4)c3)s2)c1 (centres unmarked) [Example 115-7]
IC50 (rhSYK Activity, Table 115): < 100 nM

Cc1cc(Nc2nccc(C(F)(F)F)n2)cc(-c2cnc(C3CCCCNC3=O)s2)c1 (centres unmarked) [Example 144, 3-[5-(3-methyl-5-{[4-(trifluoromethyl)pyrimidin-2-yl]amino}phenyl)-1,3-thiazol-2-yl]azepan-2-one]
IC50 [1]: < 100 nM

Cc1cc(Nc2nccc(OCCN3CCCC3=O)n2)cc(-c2cnc(C3(O)CCC3)s2)c1 [Example 108A-30]
IC50 (rhSYK Activity, Table 108A): < 100 nM

Cc1cc(Nc2nccc(C(F)(F)F)n2)cc(-c2cnc(C3(O)CCN(C(=O)C4CCCOC4)CC3)s2)c1 (centres unmarked) [Example 54A-41]
IC50 (RHSYK Activity, Table 54A): < 100 nM

Cc1cc(Nc2nccc(C(F)(F)F)n2)cc(-c2cnc(C3(O)CCC(NC(=O)CCn4cncn4)CC3)s2)c1 (centres unmarked) [Example 54E-27]
IC50 (rhSYK Activity, Table 54E): < 100 nM

COC(=O)C1CCC(O)(c2ncc(-c3cccc(Nc4nccc(C(F)(F)F)n4)c3)s2)CC1(C)C (centres unmarked) [Example 33A-65]
IC50 (rhSYK Activity, Table 33-A): 100 to 1000 nM

CCOC(=O)C1(C)CCC(O)(c2ncc(-c3cc(C)cc(Nc4nccc(C(F)(F)F)n4)c3)s2)CC1 (centres unmarked) [Example 33A-11]
IC50 (rhSYK Activity, Table 33-A): 100 to 1000 nM

Cc1cc(Nc2nccc(C(F)(F)F)n2)cc(-c2cnc(C3(O)CCN(C(=O)C(C)(CO)CO)CC3)s2)c1 [Example 54A-44]
IC50 (RHSYK Activity, Table 54A): < 100 nM

Cc1cc(Nc2nccc(C(F)(F)F)n2)cc(-c2cnc(C3(O)CCCN(C(=O)c4cnnn4C)CC3)s2)c1 (single isomer, unassigned) [Example 54D-50]
IC50 (rhSYK Activity, Table 54D): < 100 nM

Cc1cc(Nc2nccc(C(F)(F)F)n2)cc(-c2cnc(CN(CCO)CCS(=O)(=O)O)s2)c1 [Example 88A-52]
IC50 [1]: < 100 nM

Cc1cc(Nc2nccc(C(F)(F)F)n2)cc(-c2cnc(C3(O)CCN(C(=O)CC(N)=O)CC3)s2)c1 [Example 54A-25]
IC50 (RHSYK Activity, Table 54A): < 100 nM

Cc1cc(Nc2nccc(O[C@@H]3CCOC3)n2)cc(-c2cnc(C3(O)CCC3)s2)c1 [Example 94A-8]
IC50 [1]: < 100 nM

CC(=O)Nc1cc(Nc2nccc(OC3CCNCC3)n2)cc(-c2cnc(C3(O)CCC3)s2)c1 [109(2), N-(3-[2-(1-hydroxycyclobutyl)-1,3-thiazol-5-yl]-5-{[4-(piperidin-4-yloxy)pyrimidin-2-yl]-amino}phenyl)acetamide]
IC50 [1]: < 100 nM

Cc1cc(Nc2nccc(C(F)(F)F)n2)cc(-c2cnc([C@]3(O)CC[C@@H](NC(=O)CS(C)(=O)=O)CC3)s2)c1 [Example 54E-22]
IC50 (rhSYK Activity, Table 54E): < 100 nM

Cc1cc(Nc2nccc(OCCc3nnn[nH]3)n2)cc(-c2cnc(C3(O)CCC3)s2)c1 [Example 108A-21]
IC50 (rhSYK Activity, Table 108A): < 100 nM

CC1(C)CC(O)(c2ncc(-c3cccc(Nc4nccc(C(F)(F)F)n4)c3)s2)CCC1C(=O)O (single isomer, unassigned) [Example 33A-66]
IC50 (rhSYK Activity, Table 33-A): < 100 nM

Cc1cc(Nc2nccc(OC(C)C)n2)cc(-c2cnc(C3(O)CCC(C(=O)O)CC3)s2)c1 (centres unmarked) [116A-7]
IC50 (rhSYK Activity, Table 116A): < 100 nM

COC(=O)[C@@H]1CC[C@@](O)(c2ncc(-c3cc(C)cc(Nc4nccc(C(F)(F)F)n4)c3)s2)CC1(C)C [Example 121, Methyl(1R,4S)-4-hydroxy-2,2-dimethyl-4-[5-(3-methyl-5-{[4-(trifluoromethyl)pyrimidin-2-yl]-amino}phenyl)-1,3-thiazol-2-yl]cyclohexanecarboxylate]
IC50 [1]: < 100 nM

CC(C)(c1ncc(-c2cccc(Nc3nccc(C(F)(F)F)n3)c2)s1)S(N)(=O)=O [74A-3]
IC50 (rhSYK Activity, Table 74A): < 100 nM

Cc1cc(Nc2nccc(C(F)(F)F)n2)cc(-c2cnc(C(=O)NC(C)C)s2)c1 [Example 87A-1]
IC50 [1]: 100 to 1000 nM

Cc1cc(Nc2nccc(C(F)(F)F)n2)cc(-c2cnc(C(C)(O)COC(C)(C)C(=O)O)s2)c1 (centres unmarked) [Example 33D-7]
IC50 (rhSYK Activity, Table 33D): < 100 nM

CCOC(=O)C1CCC(O)(c2ncc(-c3cc(C)cc(Nc4nccc(CC)n4)c3)s2)CC1C (centres unmarked) [Example 113A-31]
IC50 (rhSYK Activity, Table 113A): < 100 nM

CCOP(=O)(OCC)[C@]1(O)CC[C@](O)(c2ncc(-c3cc(C)cc(Nc4nccc(C(F)(F)F)n4)c3)s2)CC1 [155(B), Diethyl{trans-1,4-dihydroxy-4-[5-(3-methyl-5-{[4-(trifluoromethyl)pyrimidin-2-yl]amino}phenyl)-1,3-thiazol-2-yl]cyclohexyl}phosphonate]
IC50 [1]: < 100 nM

Cc1cc(Nc2nccc(SCCO)n2)cc(-c2cnc(C3(O)CCC3)s2)c1 [Example 108A-44]
IC50 (rhSYK Activity, Table 108A): < 100 nM

C=C(c1ccc(C(=O)O)cc1)c1ncc(-c2cc(C)cc(Nc3nccc(C(F)(F)F)n3)c2)s1 [Example 113D-1]
IC50 (rhSYK Activity, Table 113D, upper part): < 100 nM
